Experimental data: patent publication US5377676A, “Method for determining the biodistribution of substances using fluorescence spectroscopy” (Cedars-Sinai Medical Center, priority 1993, dated 1995)

Assays:
[1] = BPD-MA biodistribution by LIFS, Study #1; format: in vivo, male Lobund-Wistar rats; conditions: for I(690 nm)/I(540 nm), kidney / I(690 nm)/I(540 nm), large bowel / I(690 nm)/I(540 nm), liver / I(690 nm)/I(540 nm), mesenteric lymph nodes (MCLN) / I(690 nm)/I(540 nm), metast. L. node / I(690 nm)/I(540 nm), muscle / I(690 nm)/I(540 nm), non-met L. node / I(690 nm)/I(540 nm), skin / I(690 nm)/I(540 nm), small bowel: mean ± SD
Description: (§1) The experimental arrangement used to measure the fluorescence spectra during abdominal exploration included a Helium-cadmium laser (Omnichrome, Chino, Calif.) operating at 442 nm as an excitation source. A 400 micron core diameter fiber was directed at the tissue in contact mode producing a low power (17 mW) illumination. Using the same fiber, reflected and emitted light was returned to the input of a SPEX 500 spectrometer (1422 G EG&G).
(§2) Laser output was reflected at a right angle by a dichroic mirror (HR/442 nm-H7>500 nm, CVI, New Mexico) and was focused at the input of a 400 micron core diameter fiberoptic probe. The excitation output of the laser at the distal end of the fiber was 17 mW. Fluorescence was collected using the same fiber and was transmitted through the dichroic beamsplitter and guided via a fiber bundle to a 0.5 spectrograph (100 g/mm diffraction grating with a split width of 50 microns). The light was then imaged at the modified output port. A 1024 element linear diode array detector (EG&G 1422G) was attached to the exit port, and the signal was directed to a multichannel intensifier. A longpass glass filter (Schott GG475) was used to exclude the excitation light from the detector and conversions were made by an analog to digital converter and automatically stored by a computer. […] Background spectra were recorded before excitation and subtracted from the resulting data. The detection system, including the detector attenuation filter, lenses and spectrograph, was not altered or corrected for a uniform spectral response.
(§3) Spectra from the surfaces of tumor (T), skin (S), muscle (M), liver (L), kidney (K), spleen (Sp), stomach (St), small bowel (SB) and large bowel (LB) were acquired and analyzed by the OMA. […] (FIG. 1 is a schematic representation of this experimental arrangement.) A series of spectra for Photofrin and BPD-MA were recorded from photosensitized animals. (FIGS. 2 and 3). The fluorescence intensities at 540 nm (auto-fluorescence) and 630 nm (Photofrin) or 690 nm (BPD-MA) were simultaneously monitored at three sites for each organ. By using the ratio of these intensities, (I630 nm /I540 nm) or (I690 nm /540 nm), a relative value could be assigned to each area studied. In addition, this intensity ratio eliminated any geometric factor (fiber position) influence in the calibration, as well as calibration errors. The corresponding intensity ratios were used as an index for drug presence in the various tissues.
(§4) The fluorescence emitted from cancerous and normal tissues of male Lobund-Wistar rats was investigated (Lobund Laboratory, Notre Dame University, Id.). All tumors were subcutaneously implanted by inoculating 10^5 viable cells of Pollard rat prostatic adenocarcinoma (PA-III) into the right flank of each animal. This tumor model was selected because it is known to metastasize uniformly and spontaneously from extravascular sites only through ipsilateral lymphatic channels. Because of this tumor's unique, predictable spread, the contralateral side of the animal could be used as a control. In addition, cancer detection is facilitated with this model because rats with PA-III cells survive beyond forty days after implantation without evidence of physical impairment.
(§5) Two separate experiments were performed to assess the biodistribution of BPD-MA. The first study involved 21 animals and two doses of BPD-MA, 0.25 mg/kg and 0.50 mg/kg, to determine the concentration effect of BPD-MA in various tissues. The second study involved 81 animals and 0.75 mg/kg of BPD-MA to determine the biodistribution of BPD-MA and the sensitivity and specificity of LIFS biodistribution measurements.
BPD-MA (QLT Phototherapeutics, Inc., Vancouver, Canada) was administered to 21 animals intravenously. The animals were divided into three groups of seven animals each and injected with two different doses of BPD-MA, 0.25 mg/kg (n=7) and 0.50 mg/kg (n=7) 4-6 hours prior to surgical exploration. Seven animals served as a control. […]

[2] = set-up: species or system male Lobund-Wistar rats; conditions: rat, in vivo, iv, 0.75 mg/kg
Description: as §1, §2, §3, §4, §5
BPD-MA (QLT Phototherapeutics, Inc., Vancouver, Canada) was administered intravenously in a dose of 0.75 mg/kg to 81 animals 4 hours prior to surgical exploration.
As in Study #1, the animals were anesthetized with Ketamine 40 mg/kg and Xylazine 5.0 mg/kg intraperitoneally, and the abdomens opened through a midline incision. […]

[3] = BPD-MA biodistribution by LIFS, Study #1; set-up: species or system male Lobund-Wistar rats; conditions: rat, in vivo, iv, 0.5 mg/kg
[4] = after excitation by blue light; cited from earlier work
[5] = in vivo; cited from earlier work
[6] = Photofrin biodistribution by laser induced fluorescence spectroscopy (LIFS); format: in vivo, male Lobund-Wistar rats
Description: as §1, §2, §3, §4
After forty-two days of observation, Photofrin (QLT Phototherapeutics, Inc., Vancouver, Canada) was administered intraperitoneally to forty-one animals 24-48 hours prior to surgical exploration in doses ranging from 0.25-7.5 mg/kg. Six animals were injected 24 hours prior to surgical exploration with 0.75 mg/kg of Photofrin. Thirty animals were injected with six different concentrations of Photofrin 48 hours prior to surgical exploration (7.5 mg/kg (n=5), 2.5 mg/kg (n=4), 1.5 mg/kg (n=3), 0.75 mg/kg (n=11), 0.50 mg/kg (n=4), and 0.25 mg/kg (n=3)). Five animals which had not been inoculated with PA-III were injected with 0.75 mg/kg 48 hours prior to surgical exploration, and served as a control. […]

[7] = Absorption / fluorescence of the photosensitizer; format: physicochemical; conditions: 442 nm excitation
Description: as §1
Laser output was reflected at a right angle by a dichroic mirror (HR/442 nm-H7>500 nm, CVI, New Mexico) and was focused at the input of a 400 micron core diameter fiberoptic probe. The excitation output of the laser at the distal end of the fiber was 17 mW. Fluorescence was collected using the same fiber and was transmitted through the dichroic beamsplitter and guided via a fiber bundle to a 0.5 spectrograph (100 g/mm diffraction grating with a split width of 50 microns). […] Background spectra were recorded before excitation and subtracted from the resulting data. […]
Spectra from the surfaces of tumor (T), skin (S), muscle (M), liver (L), kidney (K), spleen (Sp), stomach (St), small bowel (SB) and large bowel (LB) were acquired and analyzed by the OMA. […] (FIG. 1 is a schematic representation of this experimental arrangement.) A series of spectra for Photofrin and BPD-MA were recorded from photosensitized animals. […]

[8] = 1.5 mg/kg i.p., 48 h, PA-III rats, mean ± SD
[9] = 2.5 mg/kg i.p., 48 h, PA-III rats, mean ± SD
[10] = 7.5 mg/kg i.p., 48 h, PA-III rats, mean ± SD

Substance: Benzoporphyrin derivative monoacid-A [BPD-MA]
- I(690 nm)/I(540 nm), kidney ([1]; 4 Hours, 0.25 mg/kg i.v.): 1.04 ± 0.40
- I(690 nm)/I(540 nm), large bowel ([1]; 4 Hours, 0.25 mg/kg i.v.): 1.27 ± 0.30
- I(690 nm)/I(540 nm), liver ([1]; 4 Hours, 0.25 mg/kg i.v.): 7.83 ± 3.69
- I(690 nm)/I(540 nm), mesenteric lymph nodes (MCLN) ([1]; 4 Hours, 0.25 mg/kg i.v.): 1.40 ± 0.27
- I(690 nm)/I(540 nm), metast. L. node ([1]; 4 Hours, 0.25 mg/kg i.v.): 3.19 ± 2.31
- I(690 nm)/I(540 nm), muscle ([1]; 4 Hours, 0.25 mg/kg i.v.): 1.73 ± 0.47
- I(690 nm)/I(540 nm), non-met L. node ([1]; 4 Hours, 0.25 mg/kg i.v.): 3.55 ± 1.77
- I(690 nm)/I(540 nm), skin ([1]; 4 Hours, 0.25 mg/kg i.v.): 0.31 ± 0.12
- I(690 nm)/I(540 nm), small bowel ([1]; 4 Hours, 0.25 mg/kg i.v.): 7.63 ± 2.73
- I(690 nm)/I(540 nm), kidney ([1]; 4 Hours, 0.50 mg/kg i.v.): 1.57 ± 0.32
- I(690 nm)/I(540 nm), large bowel ([1]; 4 Hours, 0.50 mg/kg i.v.): 1.59 ± 0.45
- I(690 nm)/I(540 nm), liver ([1]; 4 Hours, 0.50 mg/kg i.v.): 15.74 ± 9.25
- I(690 nm)/I(540 nm), mesenteric lymph nodes (MCLN) ([1]; 4 Hours, 0.50 mg/kg i.v.): 3.12 ± 0.99
- I(690 nm)/I(540 nm), metast. L. node ([1]; 4 Hours, 0.50 mg/kg i.v.): 6.73 ± 2.39
- I(690 nm)/I(540 nm), muscle ([1]; 4 Hours, 0.50 mg/kg i.v.): 1.62 ± 0.82
- I(690 nm)/I(540 nm), non-met L. node ([1]; 4 Hours, 0.50 mg/kg i.v.): 2.65 ± 0.62
- I(690 nm)/I(540 nm), skin ([1]; 4 Hours, 0.50 mg/kg i.v.): 0.50 ± 0.17
- I(690 nm)/I(540 nm), small bowel ([1]; 4 Hours, 0.50 mg/kg i.v.): 9.91 ± 5.08
- I(690 nm)/I(540 nm), kidney ([1]; 6 Hours, 0.25 mg/kg i.v.): 0.78 ± 0.19
- I(690 nm)/I(540 nm), large bowel ([1]; 6 Hours, 0.25 mg/kg i.v.): 2.37 ± 1.48
- I(690 nm)/I(540 nm), liver ([1]; 6 Hours, 0.25 mg/kg i.v.): 5.20 ± 2.38
- I(690 nm)/I(540 nm), mesenteric lymph nodes (MCLN) ([1]; 6 Hours, 0.25 mg/kg i.v.): 1.43 ± 0.67
- I(690 nm)/I(540 nm), metast. L. node ([1]; 6 Hours, 0.25 mg/kg i.v.): 3.70 ± 2.82
- I(690 nm)/I(540 nm), muscle ([1]; 6 Hours, 0.25 mg/kg i.v.): 0.78 ± 0.26
- I(690 nm)/I(540 nm), non-met L. node ([1]; 6 Hours, 0.25 mg/kg i.v.): 2.77 ± 2.25
- I(690 nm)/I(540 nm), skin ([1]; 6 Hours, 0.25 mg/kg i.v.): 0.30 ± 0.15
- I(690 nm)/I(540 nm), small bowel ([1]; 6 Hours, 0.25 mg/kg i.v.): 4.98 ± 2.83
- BPD-MA retention in organs with time ([1]; rat, in vivo, iv): BPD-MA retention in all organs decreased with time
- Fluorescence intensity ratio (I630 nm/I540 nm), non-metastatic tissue ([1]; rat, in vivo, iv, 0.5 mg/kg): 2.65 ± 0.62
- I(690 nm)/I(540 nm), spleen ([1]; rat, in vivo, iv, 0.5 mg/kg): 1.57 ± 0.31
- I(690 nm)/I(540 nm), stomach ([1]; rat, in vivo, iv, 0.5 mg/kg): 2.95 ± 1.10
- I(690 nm)/I(540 nm), tumor ([1]; rat, in vivo, iv, 0.5 mg/kg): 3.44 ± 1.14
- Fluorescence intensity ratio mean, Left Iliac LN (LILN) [2]: 5.22
- Fluorescence intensity ratio mean, Mesenteric I LN (MC I) [2]: 2.45
- Fluorescence intensity ratio mean, Mesenteric II LN (MC II) [2]: 2.37
- Fluorescence intensity ratio mean, Right Iliac LN (RILN) [2]: 5.86
- Fluorescence intensity ratio mean, Right Inguinal LN (RIN) [2]: 4.72
- Fluorescence intensity ratio mean, Right Para-Aortic LN (RPAR) [2]: 7.40
- Fluorescence intensity ratio mean, Right Sub-Renalis LN (RSBR) [2]: 4.50
- Fluorescence intensity ratio mean, Right Supra-Renalis LN (RSPR) [2]: 4.26
- Fluorescence intensity ratio mean, inflammatory LN [2]: 3.67
- Fluorescence intensity ratio mean, metastatic LN [2]: 6.26
- Fluorescence intensity ratio mean, normal LN [2]: 3.06
- Fluorescence intensity ratio (I630 nm/I540 nm), metastatic tissue [3]: 6.73 ± 2.39
- Characteristic red fluorescence peak [4]: approximately 690 nm
- Photosensitivity of the skin [5]: dramatically decreased photosensitivity of the skin

Substance: Photofrin
- Fluorescence intensity ratio (I630 nm/I540 nm), skin [6, 8]: 0.23 ± 0.06
- Fluorescence intensity ratio (I630 nm/I540 nm), small bowel [6, 8]: 0.56 ± 0.08
- Fluorescence intensity ratio (I630 nm/I540 nm), spleen [6, 8]: 1.25 ± 0.35
- Fluorescence intensity ratio (I630 nm/I540 nm), stomach [6, 8]: 0.92 ± 0.12
- Fluorescence intensity ratio (I630 nm/I540 nm), tumor [6, 8]: 0.36 ± 0.01
- Fluorescence intensity ratio (I630 nm/I540 nm), non metas L. node [6, 9]: 1.75 ± 1.06
- Fluorescence intensity ratio (I630 nm/I540 nm), skin [6, 9]: 0.22 ± 0.04
- Fluorescence intensity ratio (I630 nm/I540 nm), small bowel [6, 9]: 0.57 ± 0.30
- Fluorescence intensity ratio (I630 nm/I540 nm), spleen [6, 9]: 0.72 ± 0.25
- Fluorescence intensity ratio (I630 nm/I540 nm), stomach [6, 9]: 0.26 ± 0.01
- Fluorescence intensity ratio (I630 nm/I540 nm), tumor [6, 9]: 0.70 ± 0.43
- Fluorescence intensity ratio (I630 nm/I540 nm), skin [6, 10]: 0.25 ± 0.04
- Fluorescence intensity ratio (I630 nm/I540 nm), small bowel [6, 10]: 0.96 ± 0.33
- Fluorescence intensity ratio (I630 nm/I540 nm), spleen [6, 10]: 1.56 ± 0.68
- Fluorescence intensity ratio (I630 nm/I540 nm), stomach [6, 10]: 0.62 ± 0.24
- Fluorescence intensity ratio (I630 nm/I540 nm), tumor [6, 10]: 2.45 ± 1.00
- Dose at which metastatic and non-metastatic lymph nodes are distinguished (selectivity) ([6]; rat, in vivo, 2880 min): higher than 0.25 mg/kg
- Characteristic fluorescence peak [7]: ~ 630 nm
